Measured values: the NIST ThermoML archive (doi:10.1021/acs.jced.6b00680)

What was measured:
[1] = an = ratio of the nth substance listed; details: 100 kPa, Liquid, Concentric cylinders viscometry
[2] = 101.33 kPa, Liquid, Concentric cylinders viscometry

C[N+](C)(C)CCO.[Cl-] [choline chloride] + OCCO
[1], a2 = 2
Details | viscosity [mPa·s]
293.2 K | 60.9
298.2 K | 51.4
303.2 K | 44.3
308.2 K | 38.1
313.2 K | 33.5
318.2 K | 29.4
323.2 K | 26.1
328.2 K | 23.3
333.2 K | 21.1
338.2 K | 19.3
343.2 K | 17.6
348.2 K | 16.3
353.2 K | 15.2

OCC(O)CO [glycerol]
[2]
Details | viscosity [mPa·s]
296.5 K | 1252
302.8 K | 673.4
315.8 K | 260.6
323.2 K | 148.9
332.7 K | 97.5
343.2 K | 51.9
348.2 K | 42.8
354.2 K | 34.9

NC(N)=O [urea] + C[N+](C)(C)CCO.[Cl-]
[1], a1 = 2
Details | viscosity [mPa·s]
293.2 K | 1685.8
298.2 K | 1012.3
303.2 K | 658.5
308.2 K | 454.9
313.2 K | 333.6
318.2 K | 259.8
323.2 K | 210.6
328.2 K | 179.5
333.2 K | 160.8
338.2 K | 142.6
343.2 K | 129
348.2 K | 115.6
353.2 K | 106.7
